Experimental data from patent US12157736B2, “Spiro-lactam NMDA modulators and methods of using same” (Tenacia Biotechnology (Hong Kong) Co., Limited, priority 2016, dated 2024).

How the values were obtained:
IV pharmacokinetics = assay type: in vivo, Sprague Dawley rats; conditions: rat, 2 mg/kg, normal saline
Description: Sprague Dawley rats were dosed intravenously using a normal saline formulation containing 2 mg/kg of the compounds identified in the below table. The table below summarizes the results of the IV pharmacokinetics.

NMDAR2C = biological target: T1, NMDAR2C (Homo sapiens, UniProt Q14957); test: NMDAR agonist assay, [3H]MK-801 binding, NMDAR2C expressing HEK cell membranes; assay type: biochemical; conditions: 50 μM glutamate; for EC50: read-out: NMDAR2C: log EC50 (converted)
T1 construct: expressed in transfected cells; host or cells: HEK cells (membrane extract)
Description: (§1) Assays were conducted as described by Moskal et al., “GLYX-13: a monoclonal antibody-derived peptide that acts as an N-methyl-D-aspartate receptor modulator,” Neuropharmacology, 49, 1077-87, 2005. These studies were designed to determine if the test compounds act to facilitate NMDAR activation in NMDAR2A, NMDAR2B, NMDAR2C or NMDAR2D expressing HEK cell membranes as measured by increases in [^3H]MK-801 binding.
(§2) In the assay, 300 μg of NMDAR expressing HEK cell membrane extract protein was preincubated for 15 minutes at 25° C. in the presence of saturating concentrations of glutamate (50 μM) and varying concentrations of test compound (1×10^−15M−1×10^−7M), or 1 mM glycine. Following the addition of […] of [^3H]MK-801 (22.5 Ci/mmol), reactions were again incubated for 15 minutes at 25° C. (nonequilibrium conditions). Bound and free [^3H]MK-801 were separated via rapid filtration using a Brandel apparatus.
(§3) In analyzing the data, the DPM (disintegrations per minute) of [^3H]MK-801 remaining on the filter were measured for each concentration of test compound or for 1 mM glycine. The DPM values for each concentration of a ligand (N=2) were averaged. The baseline value was determined from the best fit curve of the DPM values modeled using the GraphPad program and the log(agonist) vs. response (three parameters) algorithm was then subtracted from all points in the dataset. The % maximal [3H]MK-801 binding was then calculated relative to that of 1 mM glycine: all baseline subtracted DPM values were divided by the average value for 1 mM glycine. The EC50 and % maximal activity were then obtained from the best fit curve of the % maximal [3H]MK-801 binding data modelled using the GraphPad program and the log(agonist) vs. response (three parameters) algorithm.
(§4) The tables below summarize the results for the wild type […] NMDAR2A, NMDAR2B, NMDAR2C, and NMDAR2D, and whether the compound is not an agonist (−), is an agonist (+), or is a strong agonist (++), where column A is based on the % maximal [3H]MK-801 binding relative to 1 mM glycine (−=0; <100%=+; and >100%=++); and column B is based on log EC50 values (0=−; ≥1×10^−9 M (e.g., −8)=+; and <1×10^−9 M (e.g., −10)=++).

NMDAR2D = biological target: T2, NMDAR2D (Homo sapiens, UniProt O15399); test: NMDAR agonist assay, [3H]MK-801 binding, NMDAR2D expressing HEK cell membranes; assay type: biochemical; conditions: 50 μM glutamate
T2 construct: expressed in transfected cells; host or cells: HEK cells (membrane extract)
Description: as §1, §2
as §3, with “algorithm. […]” for “algorithm.”

rats [1] = test: Porsolt forced swim test; assay type: in vivo, Sprague Dawley rats
Description: A non-clinical in vivo pharmacology study (Porsolt assay) was performed to measure antidepressant-like effects. A negative control (0.5% sodium carboxymethyl cellulose in 0.9% sterile saline vehicle) and a positive control (fluoxetine) are shown for comparison against test compound. The study allowed for the evaluation of the effects of each compound on the Porsolt forced swim test as assessed by the rats' response (reduced floating time) during a 5-minute swimming test.
(§5) Male 2-3 month old Sprague Dawley rats were used (Harlan, Indianapolis, IN). Rats were housed in Lucite cages with aspen wood chip bedding, maintained on a 12:12 light:dark cycle (lights on at 5 AM), and given ad libitum access to Purina lab chow (USA) and tap water throughout the study.
The Porsolt forced swim test adapted for use in rats was performed as described by Burgdorf et al., (The long-lasting antidepressant effects of rapastinel (GLYX-13) are associated with a metaplasticity process in the medial prefrontal cortex and hippocampus. Neuroscience 308:202-211, 2015). Animals were placed in a 46 cm tall×20 cm in diameter clear glass tube filled to 30 cm with tap water (23±1° C.) for 15 min on the first day (habituation) and 5 min on the subsequent test day. Positive control fluoxetine was dosed 3 times (24 h, 5 h and 1 h) prior to testing. Animals were tested 1 h or 24 h post-dosing with the test compounds or vehicle. Animals received a 15 min habituation session 1 day before the 5 min test. Water was changed after every other animal. Animals were videotaped, and floating time as defined as the minimal amount of effort required to keep the animals head above water was scored offline by a blinded experimenter with high inter-rater reliability (Pearson's r>0.9).
Each compound tested at dose level shown. Significance vs. vehicle group for each experiment is marked. […] A compound marked “No” was not statistically significant from vehicle. Data was averaged for test compound and vehicle groups (N approximately 8 per group) and the percent reduction in floating for group treated with test compound relative to group treated with vehicle is shown.

NMDAR2A = biological target: T3, NMDAR2A (Homo sapiens, UniProt Q12879); test: NMDAR agonist assay, [3H]MK-801 binding, NMDAR2A expressing HEK cell membranes; assay type: biochemical; conditions: 50 μM glutamate; for EC50: read-out: NMDAR2A: log EC50 (converted)
T3 construct: expressed in transfected cells; host or cells: HEK cells (membrane extract)
Description: as §1, §2, §3, §4

NMDAR2B = biological target: T4, NMDAR2B (Homo sapiens, UniProt Q13224); test: NMDAR agonist assay, [3H]MK-801 binding, NMDAR2B expressing HEK cell membranes; assay type: biochemical; conditions: 50 μM glutamate
T4 construct: expressed in transfected cells; host or cells: HEK cells (membrane extract)
Description: as §1, §2, §3, §4

rats [2] = test: Bennett model of mechanical analgesia (sciatic nerve chronic constriction injury); assay type: in vivo, Sprague Dawley rats; conditions: 150 mg/kg PO
Description: The Bennett model of mechanical analgesia is used to assess the analgesic effects of compounds as measured by paw withdrawal threshold. Bennett G J, Xie Y K, “A peripheral mononeuropathy in rat that produces disorders of pain sensation like those seen in man,” Pain 33:87-107, 1988. […] Vehicle animals receive the surgery and then receive vehicle rather than test compound. Animals were tested 1 hr, 24 h and 1 wk post-test compound or vehicle administration.
as §5, with “used. Harlan was the supplier for all studies.” for “used (Harlan, Indianapolis, IN).”
Rats were anesthetized using inhaled isoflurane (2.5%). Sciatic nerve chronic constriction nerve injury surgery was performed as previously described (Bennett and Xie, 1988). An incision (˜1.5 cm in length) was made with a scalpel blade dorsally through skin on the right hind limb, parallel and posterior to femur. Using a small pointed hemostat, the biceps femoris and gluteus superficialis muscles were separated. Using curved blunt forceps, the common sciatic nerve was isolated and exposed. For the mechanical analgesia studies, the whole sciatic nerve was ligated. Using hemostats/forceps and chromic gut (5-0), the nerve was loosely ligated with a square knot; 3 ligatures, 1 mm apart were placed on the nerve. […] Testing occurred approximately 2 weeks post-surgery.
During testing, rats were acclimated to the surface of a suspended wire mesh grid (1 cm×1 cm, with the wire being 0.3 cm in diameter) for 15-20 min. Starting from the smallest, each Von Frey filament was pressed perpendicularly to the plantar surface of the affected (ipsilateral) hind paw until slightly bent and then held for 6 second. If an obvious hind paw withdrawal or a flinching behavior immediately after the withdrawal of the filament was not observed, the next larger filament was used in the same manner. In case of a response, a lower filament was used. This was repeated until six responses were collected.
For all studies, animals were baselined prior to study start to test for allodynia (defined as a paw withdrawal threshold under 5). A subset of animals was tested with gabapentin (150 mg/kg, PO) to ensure at least 50% analgesia. Once it was confirmed animals were ready for study initiation, animals were balanced across groups. All study investigators were blind to treatment conditions. Animals were dosed with 0.1, 1, 10, or 30 mg/kg of test compound via oral gavage (PO), control sets of animals were dosed with gabapentin (150 mg/kg, PO) or vehicle (0.5% Na-CMC in 0.9% sterile saline, PO). Testing occurred 1 h post-dosing with animals retested 24 hrs and 1 week post-dosing. The percent analgesia calculations for each animal were made using the following equation: % analgesia=[(log(x)−y)/((log(z)−y)]*100, where x=the paw withdrawal threshold for the drug-treated animal in grams, y=the average of the log(x) values for the vehicle treated group, and z=the paw withdrawal threshold for naïve animals in grams (historical value of 15 used). The results for Compound AA-2, where the percentage of analgesia is measured at 1 hour, 24 hours, and 1 week after compound administration are as follows: for 0.1 mg/kg dose: 22.3% at 1 h, 1.6% at 24 h, and 2.3% at 1 wk; for 1 mg/kg dose: 19.2% at 1 h, 10.7% at 24 h, and 11.0% at 1 wk; for 10 mg/kg dose: 38.1% at 1 h, 24.3% at 24 h, and 41.4% at 1 wk; and for 30 mg/kg dose: 24.4% at 1 h, 8.7% at 24 h, and 34.5% at 1 wk.

[3] = 1 h post-dose, 0.1 mg/kg, Yes = statistically significant (p<=0.05) from vehicle
[4] = 24 h post-dose, 0.1 mg/kg, Yes = statistically significant (p<=0.05) from vehicle

T3 sequence (Q12879 23-1464, species assumed, other chains not shown): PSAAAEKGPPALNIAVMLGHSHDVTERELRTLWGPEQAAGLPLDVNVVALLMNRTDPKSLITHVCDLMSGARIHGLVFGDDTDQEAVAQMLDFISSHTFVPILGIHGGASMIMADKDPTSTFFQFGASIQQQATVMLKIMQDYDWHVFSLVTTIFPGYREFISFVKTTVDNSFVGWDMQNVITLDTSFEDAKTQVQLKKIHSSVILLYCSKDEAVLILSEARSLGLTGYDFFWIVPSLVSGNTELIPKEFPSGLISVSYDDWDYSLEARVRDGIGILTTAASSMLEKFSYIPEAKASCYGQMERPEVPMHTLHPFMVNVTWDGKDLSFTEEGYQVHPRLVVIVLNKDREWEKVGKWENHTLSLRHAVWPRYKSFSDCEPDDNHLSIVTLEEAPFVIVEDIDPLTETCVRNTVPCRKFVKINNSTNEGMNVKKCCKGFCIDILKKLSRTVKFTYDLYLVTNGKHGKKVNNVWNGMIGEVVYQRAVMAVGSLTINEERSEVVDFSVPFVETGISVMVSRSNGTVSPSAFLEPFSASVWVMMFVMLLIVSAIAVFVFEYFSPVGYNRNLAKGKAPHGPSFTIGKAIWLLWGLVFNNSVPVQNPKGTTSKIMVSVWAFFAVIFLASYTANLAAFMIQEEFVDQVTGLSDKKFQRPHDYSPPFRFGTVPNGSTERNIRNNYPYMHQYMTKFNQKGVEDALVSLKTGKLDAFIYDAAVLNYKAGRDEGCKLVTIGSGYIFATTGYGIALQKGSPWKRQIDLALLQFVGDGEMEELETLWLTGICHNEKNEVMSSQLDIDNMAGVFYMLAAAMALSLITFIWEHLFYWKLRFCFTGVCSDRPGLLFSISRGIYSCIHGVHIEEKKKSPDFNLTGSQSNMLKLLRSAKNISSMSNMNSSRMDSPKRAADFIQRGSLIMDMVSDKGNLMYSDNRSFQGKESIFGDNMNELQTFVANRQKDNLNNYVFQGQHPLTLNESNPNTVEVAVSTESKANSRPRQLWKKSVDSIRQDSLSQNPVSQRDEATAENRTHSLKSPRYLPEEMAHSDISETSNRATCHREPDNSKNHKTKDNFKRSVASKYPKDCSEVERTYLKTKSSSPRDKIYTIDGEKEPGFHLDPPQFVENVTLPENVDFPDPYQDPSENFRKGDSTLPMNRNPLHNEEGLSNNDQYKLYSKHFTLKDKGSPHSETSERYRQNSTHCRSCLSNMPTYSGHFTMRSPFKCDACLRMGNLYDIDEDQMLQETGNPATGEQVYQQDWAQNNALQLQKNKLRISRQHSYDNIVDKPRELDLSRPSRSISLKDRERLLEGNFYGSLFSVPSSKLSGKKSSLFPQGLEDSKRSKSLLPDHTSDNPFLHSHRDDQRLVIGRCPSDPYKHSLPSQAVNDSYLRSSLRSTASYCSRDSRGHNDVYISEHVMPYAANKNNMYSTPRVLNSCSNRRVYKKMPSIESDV
T1 sequence (Q14957 20-1233, species assumed, other chains not shown): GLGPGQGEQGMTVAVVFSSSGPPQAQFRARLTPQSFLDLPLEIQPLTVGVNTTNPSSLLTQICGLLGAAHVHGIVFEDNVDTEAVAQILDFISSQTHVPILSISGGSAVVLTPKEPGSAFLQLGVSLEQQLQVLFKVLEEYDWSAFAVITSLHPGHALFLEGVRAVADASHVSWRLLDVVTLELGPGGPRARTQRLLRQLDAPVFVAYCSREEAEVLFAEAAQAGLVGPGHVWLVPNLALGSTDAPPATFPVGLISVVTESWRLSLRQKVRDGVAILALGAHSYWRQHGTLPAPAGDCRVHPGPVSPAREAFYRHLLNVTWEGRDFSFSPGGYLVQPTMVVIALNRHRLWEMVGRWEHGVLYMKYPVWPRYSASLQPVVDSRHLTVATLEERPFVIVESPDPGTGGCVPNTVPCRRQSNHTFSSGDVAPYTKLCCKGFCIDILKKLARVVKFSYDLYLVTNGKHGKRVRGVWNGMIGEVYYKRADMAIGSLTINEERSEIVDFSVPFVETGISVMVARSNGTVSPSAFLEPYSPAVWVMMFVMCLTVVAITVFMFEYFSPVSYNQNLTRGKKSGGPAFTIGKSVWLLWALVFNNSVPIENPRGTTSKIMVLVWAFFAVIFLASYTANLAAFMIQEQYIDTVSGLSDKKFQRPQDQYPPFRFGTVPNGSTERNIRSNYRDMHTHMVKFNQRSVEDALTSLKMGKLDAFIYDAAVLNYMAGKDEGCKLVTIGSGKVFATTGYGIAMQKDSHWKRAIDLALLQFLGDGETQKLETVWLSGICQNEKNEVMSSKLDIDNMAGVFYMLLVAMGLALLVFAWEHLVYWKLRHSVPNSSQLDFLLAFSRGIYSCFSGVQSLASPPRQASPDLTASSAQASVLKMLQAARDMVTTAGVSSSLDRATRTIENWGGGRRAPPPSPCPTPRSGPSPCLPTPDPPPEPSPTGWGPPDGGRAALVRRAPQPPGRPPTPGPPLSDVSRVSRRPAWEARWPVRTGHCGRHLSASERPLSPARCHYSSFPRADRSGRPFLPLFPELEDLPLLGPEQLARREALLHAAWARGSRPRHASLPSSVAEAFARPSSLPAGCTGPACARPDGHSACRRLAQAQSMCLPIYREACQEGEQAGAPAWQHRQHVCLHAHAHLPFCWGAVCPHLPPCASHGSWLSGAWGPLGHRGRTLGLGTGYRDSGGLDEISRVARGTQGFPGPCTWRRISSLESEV
T2 sequence (O15399 28-1336, species assumed, other chains not shown): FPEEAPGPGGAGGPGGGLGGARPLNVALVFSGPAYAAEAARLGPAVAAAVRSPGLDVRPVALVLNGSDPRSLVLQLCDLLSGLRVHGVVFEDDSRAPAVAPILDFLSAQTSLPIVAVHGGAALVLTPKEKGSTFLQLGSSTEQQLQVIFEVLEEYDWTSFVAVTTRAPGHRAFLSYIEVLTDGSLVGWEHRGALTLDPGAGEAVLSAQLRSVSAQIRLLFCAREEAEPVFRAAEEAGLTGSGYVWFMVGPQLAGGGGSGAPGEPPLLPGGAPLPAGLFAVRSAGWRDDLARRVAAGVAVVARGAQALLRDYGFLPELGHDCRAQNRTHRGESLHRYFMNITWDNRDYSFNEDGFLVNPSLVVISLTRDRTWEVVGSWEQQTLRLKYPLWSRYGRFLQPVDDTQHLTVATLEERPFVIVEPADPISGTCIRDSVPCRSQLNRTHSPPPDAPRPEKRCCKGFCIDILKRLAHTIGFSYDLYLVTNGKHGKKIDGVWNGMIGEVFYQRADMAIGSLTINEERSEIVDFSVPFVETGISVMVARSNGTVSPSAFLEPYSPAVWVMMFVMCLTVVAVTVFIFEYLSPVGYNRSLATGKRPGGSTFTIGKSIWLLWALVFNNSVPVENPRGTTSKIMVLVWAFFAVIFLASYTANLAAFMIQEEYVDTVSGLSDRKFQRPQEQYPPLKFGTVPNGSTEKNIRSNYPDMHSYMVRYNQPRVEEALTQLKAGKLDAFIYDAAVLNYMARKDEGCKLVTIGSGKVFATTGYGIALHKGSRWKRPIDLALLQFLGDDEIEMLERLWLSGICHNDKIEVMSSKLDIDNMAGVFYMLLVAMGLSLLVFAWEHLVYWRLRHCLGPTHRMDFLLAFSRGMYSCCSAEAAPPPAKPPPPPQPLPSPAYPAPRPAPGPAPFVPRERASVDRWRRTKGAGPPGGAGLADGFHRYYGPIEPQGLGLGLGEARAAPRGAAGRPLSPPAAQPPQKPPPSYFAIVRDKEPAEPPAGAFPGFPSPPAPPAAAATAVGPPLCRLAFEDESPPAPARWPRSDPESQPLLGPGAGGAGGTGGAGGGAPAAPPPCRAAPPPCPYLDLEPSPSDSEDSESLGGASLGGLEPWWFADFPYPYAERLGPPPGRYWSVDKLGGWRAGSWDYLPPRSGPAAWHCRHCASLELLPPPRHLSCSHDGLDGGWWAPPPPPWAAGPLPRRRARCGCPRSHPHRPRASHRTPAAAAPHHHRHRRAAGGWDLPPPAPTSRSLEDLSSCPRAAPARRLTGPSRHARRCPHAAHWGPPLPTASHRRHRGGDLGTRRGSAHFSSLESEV

| Compound | CI (IV pharmacokinetics) [mL/min/kg] | NMDAR2C A: % maximal [3H]MK-801 binding relative to 1 mM glycine (NMDAR2C) | EC50 (NMDAR2C) [nM] | NMDAR2D: % maximal [3H]MK-801 binding relative to 1 mM glycine (NMDAR2D) | Significance vs. vehicle (rats [1]; [3]) | Significance vs. vehicle (rats [1]; [4]) | EC50 (NMDAR2A) [nM] | also measured |
| --- | --- | --- | --- | --- | --- | --- | --- | --- |
| COc1ccc(CN2CC3(CCNC(=O)C3)C2=O)cc1 (racemic) [AA-rac, 2-(4-methoxybenzyl)-2,7-diazaspiro[3.5]nonane-1,6-dione] | 5.28 | − (−=0) | > 100 | + (<100%=+) | Yes | Yes | > 100 |  |
| C[C@@H](O)[C@@H](C(=O)NCc1ccccc1)N1CC2(CCNC(=O)C2)C1=O (single isomer, unassigned) [CB] | 25.31 |  |  |  |  |  |  | NMDAR2B: % maximal [3H]MK-801 binding relative to 1 mM glycine (NMDAR2B): + (<100%=+); NMDAR2A: % maximal [3H]MK-801 binding relative to 1 mM glycine (NMDAR2A): − (−=0) |
| CCN1CCC2(CC1=O)CN(Cc1ccc(OC)cc1)C2=O (single isomer, unassigned) [CL, 7-ethyl-2-(4-methoxybenzyl)-2,7-diazaspiro[3.5]nonane-1,6-dione] | 41.73 |  |  |  |  |  |  | NMDAR2B: % maximal [3H]MK-801 binding relative to 1 mM glycine (NMDAR2B): + (<100%=+); NMDAR2A: % maximal [3H]MK-801 binding relative to 1 mM glycine (NMDAR2A): + (<100%=+) |
| COc1ccc(CN2C[C@]3(CCNC(=O)C3)C2=O)cc1 [AA-1, 2-(4-methoxybenzyl)-2,7-diazaspiro[3.5]nonane-1,6-dione] | 9.69 | − (−=0) | > 100 | + (<100%=+) | Yes | Yes | > 100 |  |
| COc1ccc(CN2C[C@@]3(CCNC(=O)C3)C2=O)cc1 [Compound AA-2, 2-(4-methoxybenzyl)-2,7-diazaspiro[3.5]nonane-1,6-dione] | 9.82 | − (−=0) | > 100 | + (<100%=+) | Yes | Yes | > 100 |  |
| CNCCC(Oc1ccc(C(F)(F)F)cc1)c1ccccc1 (stereo not shown) [Fluoxetine, fluoxetine, reference compound] |  |  |  |  |  |  |  | Significance vs. vehicle (rats [1]; 1 h post-dose, 20 mg/kg, dosed 3 times (24 h, 5 h and 1 h) prior to testing, positive control): Yes |
| NCC1(CC(=O)O)CCCCC1 [gabapentin] |  |  |  |  |  |  |  | % analgesia, control group of the study (rats [2]; 1 week post-administration): under 5%; % analgesia, example (typical) control values (rats [2]; 1 wk): 0%; % analgesia, example (typical) control values (rats [2]; 1 h): 72%; % analgesia, control group of the study (rats [2]; 1 h post-administration): at least 50%; % analgesia, example (typical) control values (rats [2]; 24 h): 16%; % analgesia, control group of the study (rats [2]; 24 h post-administration): under 5% |
